Reference: patent publication US11564969B2, “Immunorhelin compounds for intracellular infections” (ISR IMMUNE SYSTEM REGULATION HOLDING AB (PUBL), priority 2017, dated 2023)
Read-outs that look alike come from different tables or passages of the source. Square brackets hold non-standard residues; d marks the D form. Peptide text beside a SMILES is read from it. * marks the point of attachment. dHis(τ-Bn) = N[C@H](Cc1cn(Cc2ccccc2)cn1)C(=O)O; d2Nal = N[C@H](Cc1ccc2ccccc2c1)C(=O)O; pGlu = O=C1CC[C@@H](C(=O)O)N1; tBu = CC(C)(C)*

Key:
[1] = Solubility analysis in PBS (Analysis Method B); format: physicochemical; conditions: pH 7.4
Protocol: The solubility of compounds of the invention was tested as described in the general methods. Solubility was then graded according to a rating between 1 to 5, where 1 is most soluble and 5 is least soluble.

GnRHR = target: T1, GnRHR (Homo sapiens, UniProt P30968)
T1 sequence (P30968 1-328): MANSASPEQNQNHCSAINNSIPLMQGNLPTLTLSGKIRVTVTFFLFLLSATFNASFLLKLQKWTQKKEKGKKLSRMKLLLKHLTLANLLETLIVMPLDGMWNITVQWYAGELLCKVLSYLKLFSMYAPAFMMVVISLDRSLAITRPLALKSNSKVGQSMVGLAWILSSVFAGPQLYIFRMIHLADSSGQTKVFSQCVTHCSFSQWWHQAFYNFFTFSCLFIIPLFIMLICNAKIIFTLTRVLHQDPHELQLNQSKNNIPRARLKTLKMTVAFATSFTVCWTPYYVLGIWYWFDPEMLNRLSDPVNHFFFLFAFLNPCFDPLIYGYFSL

Row | Solubility grading [1] | GNRHR Stimulation at 1 μM (GnRHR; 1000.0) [percentage] | SMILES | GNRHR Stimulation at 1 μM (GnRHR; 1 μM, calcium assay, CHO-K1 cells)
1 | 1 | 12 | NC(=O)CNC(=O)[C@@H]1CCCN1C(=O)[C@H](Cc1ccc(O)cc1)NC(=O)[C@H](Cc1c[nH]c2ccccc12)NC(=O)[C@@H](Cc1ccc2ccccc2c1)NC(=O)[C@H](Cc1ccc(O)cc1)NC(=O)[C@H](CO)NC(=O)[C@H](Cc1c[nH]c2ccccc12)NC(=O)[C@H](Cc1c[nH]cn1)NC(=O)[C@@H]1CCC(=O)N1 [Compound 30, pGlu-His-Trp-Ser-Tyr-D-Nal-Trp-Tyr-Pro-Gly-amide] ([pGlu]HWSY[d2Nal]WYPG-NH2) | 
2 | 2 | 111 | CCNC(=O)[C@@H]1CCCN1C(=O)[C@H](CCCNC(=N)N)NC(=O)[C@H](Cc1c[nH]c2ccccc12)NC(=O)[C@@H](CC(C)C)NC(=O)[C@H](Cc1ccc(O)cc1)NC(=O)[C@H](CO)NC(=O)[C@H](Cc1c[nH]c2ccccc12)NC(=O)[C@H](Cc1c[nH]cn1)NC(=O)[C@@H]1CCC(=O)N1 [Compound 44, pGlu-His-Trp-Ser-Tyr-D-Leu-Trp-Arg-Pro-NHEt] ([pGlu]HWSY[dL]WRP-NHEt) | 
3 | 2 | 95 | CC(C)C[C@H](NC(=O)[C@@H](Cc1ccc2ccccc2c1)NC(=O)[C@H](Cc1c[nH]cn1)NC(=O)[C@H](CO)NC(=O)[C@H](Cc1c[nH]c2ccccc12)NC(=O)[C@H](Cc1c[nH]cn1)NC(=O)[C@@H]1CCC(=O)N1)C(=O)N[C@@H](Cc1ccc(O)cc1)C(=O)N1CCC[C@H]1C(=O)NCC(N)=O [Compound 28, pGlu-His-Trp-Ser-His-D-Nal-Leu-Tyr-Pro-Gly-amide] ([pGlu]HWSH[d2Nal]LYPG-NH2) | 
4 | 4 | 72 | NC(=O)CNC(=O)[C@@H]1CCCN1C(=O)[C@H](Cc1ccc(O)cc1)NC(=O)[C@H](Cc1c[nH]c2ccccc12)NC(=O)[C@@H](Cc1c[nH]c2ccccc12)NC(=O)[C@H](Cc1c[nH]cn1)NC(=O)[C@H](CO)NC(=O)[C@H](Cc1c[nH]c2ccccc12)NC(=O)[C@H](Cc1c[nH]cn1)NC(=O)[C@@H]1CCC(=O)N1 [Compound 65, pGlu-His-Trp-Ser-His-D-Trp-Trp-Tyr-Pro-Gly-amide] ([pGlu]HWSH[dW]WYPG-NH2) | 
5 | 5 | 83 | N=C(N)NCCC[C@H](NC(=O)[C@H](Cc1c[nH]c2ccccc12)NC(=O)[C@@H](Cc1c[nH]c2ccccc12)NC(=O)[C@H](Cc1ccc(O)cc1)NC(=O)[C@H](CO)NC(=O)[C@H](Cc1c[nH]c2ccccc12)NC(=O)[C@H](Cc1c[nH]cn1)NC(=O)[C@@H]1CCC(=O)N1)C(=O)N1CCC[C@H]1C(=O)NCC(N)=O [Compound 66, pGlu-His-Trp-Ser-Tyr-D-Trp-Trp-Arg-Pro-Gly-amide] ([pGlu]HWSY[dW]WRPG-NH2) | 
6 | 1 | 108 | N=C(N)NCCC[C@H](NC(=O)[C@H](Cc1c[nH]c2ccccc12)NC(=O)[C@@H](Cc1ccc2ccccc2c1)NC(=O)[C@H](Cc1c[nH]cn1)NC(=O)[C@H](CO)NC(=O)[C@H](Cc1c[nH]c2ccccc12)NC(=O)[C@H](Cc1c[nH]cn1)NC(=O)[C@@H]1CCC(=O)N1)C(=O)N1CCC[C@H]1C(=O)NCC(N)=O [Compound 27, pGlu-His-Trp-Ser-His-D-Nal-Trp-Arg-Pro-Gly-amide] ([pGlu]HWSH[d2Nal]WRPG-NH2) | 
7 | 4 | 80 | CCNC(=O)[C@@H]1CCCN1C(=O)[C@H](Cc1ccc(O)cc1)NC(=O)[C@H](Cc1c[nH]c2ccccc12)NC(=O)[C@@H](COC(C)(C)C)NC(=O)[C@H](Cc1ccc(O)cc1)NC(=O)[C@H](CO)NC(=O)[C@H](Cc1c[nH]c2ccccc12)NC(=O)[C@H](Cc1c[nH]cn1)NC(=O)[C@@H]1CCC(=O)N1 [Compound 12, pGlu-His-Trp-Ser-Tyr-D-Ser(tBu)-Trp-Tyr-Pro-NHEt] ([pGlu]HWSY[dS](tBu)WYP-NHEt) | 
8 | 1 | 117 | CCNC(=O)[C@@H]1CCCN1C(=O)[C@H](CCCNC(=N)N)NC(=O)[C@H](Cc1c[nH]c2ccccc12)NC(=O)[C@@H](Cc1cn(Cc2ccccc2)cn1)NC(=O)[C@H](Cc1ccc(O)cc1)NC(=O)[C@H](CO)NC(=O)[C@H](Cc1c[nH]c2ccccc12)NC(=O)[C@H](Cc1c[nH]cn1)NC(=O)[C@@H]1CCC(=O)N1 [Compound 67, pGlu-His-Trp-Ser-Tyr-D-Bhi-Trp-Arg-Pro-NHEt] ([pGlu]HWSY[dHis(τ-Bn)]WRP-NHEt) | 
9 | 2 | 105 | CCNC(=O)[C@@H]1CCCN1C(=O)[C@H](Cc1ccc(O)cc1)NC(=O)[C@H](CC(C)C)NC(=O)[C@@H](CC(C)C)NC(=O)[C@H](Cc1ccc(O)cc1)NC(=O)[C@H](CO)NC(=O)[C@H](Cc1c[nH]c2ccccc12)NC(=O)[C@H](Cc1c[nH]cn1)NC(=O)[C@@H]1CCC(=O)N1 [Compound 45, pGlu-His-Trp-Ser-Tyr-D-Leu-Leu-Tyr-Pro-NHEt] ([pGlu]HWSY[dL]LYP-NHEt) | 
10 | 1 | 88 | CCNC(=O)[C@@H]1CCCN1C(=O)[C@H](CCCNC(=N)N)NC(=O)[C@H](CC(C)C)NC(=O)[C@@H](COC(C)(C)C)NC(=O)[C@H](Cc1c[nH]cn1)NC(=O)[C@H](CO)NC(=O)[C@H](Cc1c[nH]c2ccccc12)NC(=O)[C@H](Cc1c[nH]cn1)NC(=O)[C@@H]1CCC(=O)N1 [Compound 6, pGlu-His-Trp-Ser-His-D-Ser(tBu)-Leu-Arg-Pro-NHEt] ([pGlu]HWSH[dS](tBu)LRP-NHEt) | 
11 |  |  | CC(C)C[C@H](NC(=O)[C@@H](Cc1ccc2ccccc2c1)NC(=O)[C@H](Cc1ccc(O)cc1)NC(=O)[C@H](CO)NC(=O)[C@H](Cc1c[nH]c2ccccc12)NC(=O)[C@H](Cc1c[nH]cn1)NC(=O)[C@@H]1CCC(=O)N1)C(=O)N[C@@H](CCCNC(=N)N)C(=O)N1CCC[C@H]1C(=O)NCC(N)=O [Nafarelin, nafarelin, reference compound] | 100 (n = 2) percentage
12 | 1 | 86 | CC(C)C[C@H](NC(=O)[C@@H](Cc1c[nH]c2ccccc12)NC(=O)[C@H](Cc1c[nH]cn1)NC(=O)[C@H](CO)NC(=O)[C@H](Cc1c[nH]c2ccccc12)NC(=O)[C@H](Cc1c[nH]cn1)NC(=O)[C@@H]1CCC(=O)N1)C(=O)N[C@@H](CCCNC(=N)N)C(=O)N1CCC[C@H]1C(=O)NCC(N)=O [Compound 68, pGlu-His-Trp-Ser-His-D-Trp-Leu-Arg-Pro-Gly-amide] ([pGlu]HWSH[dW]LRPG-NH2) | 
13 | 1 | 102 | CCNC(=O)[C@@H]1CCCN1C(=O)[C@H](CCCNC(=N)N)NC(=O)[C@H](CC(C)C)NC(=O)[C@@H](CC(C)C)NC(=O)[C@H](Cc1c[nH]cn1)NC(=O)[C@H](CO)NC(=O)[C@H](Cc1c[nH]c2ccccc12)NC(=O)[C@H](Cc1c[nH]cn1)NC(=O)[C@@H]1CCC(=O)N1 [Compound 42, pGlu-His-Trp-Ser-His-D-Leu-Leu-Arg-Pro-NHEt] ([pGlu]HWSH[dL]LRP-NHEt) | 
14 | 5 | 77 | CCNC(=O)[C@@H]1CCCN1C(=O)[C@H](Cc1ccc(O)cc1)NC(=O)[C@H](Cc1c[nH]c2ccccc12)NC(=O)[C@@H](Cc1cn(Cc2ccccc2)cn1)NC(=O)[C@H](Cc1ccc(O)cc1)NC(=O)[C@H](CO)NC(=O)[C@H](Cc1c[nH]c2ccccc12)NC(=O)[C@H](Cc1c[nH]cn1)NC(=O)[C@@H]1CCC(=O)N1 [Compound 62, pGlu-His-Trp-Ser-Tyr-D-Bhi-Trp-Tyr-Pro-NHEt] ([pGlu]HWSY[dHis(τ-Bn)]WYP-NHEt) | 
15 | 3 | 112 | CCNC(=O)[C@@H]1CCCN1C(=O)[C@H](Cc1ccc(O)cc1)NC(=O)[C@H](CC(C)C)NC(=O)[C@@H](Cc1cn(Cc2ccccc2)cn1)NC(=O)[C@H](Cc1c[nH]cn1)NC(=O)[C@H](CO)NC(=O)[C@H](Cc1c[nH]c2ccccc12)NC(=O)[C@H](Cc1c[nH]cn1)NC(=O)[C@@H]1CCC(=O)N1 [Compound 61, pGlu-His-Trp-Ser-His-D-Bhi-Leu-Tyr-Pro-NHEt] ([pGlu]HWSH[dHis(τ-Bn)]LYP-NHEt) | 
16 | 4 | 82 | CC(C)C[C@H](NC(=O)[C@@H](Cc1ccc2ccccc2c1)NC(=O)[C@H](Cc1ccc(O)cc1)NC(=O)[C@H](CO)NC(=O)[C@H](Cc1c[nH]c2ccccc12)NC(=O)[C@H](Cc1c[nH]cn1)NC(=O)[C@@H]1CCC(=O)N1)C(=O)N[C@@H](Cc1ccc(O)cc1)C(=O)N1CCC[C@H]1C(=O)NCC(N)=O [Compound 25, pGlu-His-Trp-Ser-Tyr-D-Nal-Leu-Tyr-Pro-Gly-amide] ([pGlu]HWSY[d2Nal]LYPG-NH2) | 
17 | 1 | 105 | CCNC(=O)[C@@H]1CCCN1C(=O)[C@H](Cc1ccc(O)cc1)NC(=O)[C@H](Cc1c[nH]c2ccccc12)NC(=O)[C@@H](CC(C)C)NC(=O)[C@H](Cc1c[nH]cn1)NC(=O)[C@H](CO)NC(=O)[C@H](Cc1c[nH]c2ccccc12)NC(=O)[C@H](Cc1c[nH]cn1)NC(=O)[C@@H]1CCC(=O)N1 [Compound 50, pGlu-His-Trp-Ser-His-D-Leu-Trp-Tyr-Pro-NHEt] ([pGlu]HWSH[dL]WYP-NHEt) | 
18 | 1 | 81 | CCNC(=O)[C@@H]1CCCN1C(=O)[C@H](CCCNC(=N)N)NC(=O)[C@H](Cc1c[nH]c2ccccc12)NC(=O)[C@@H](COC(C)(C)C)NC(=O)[C@H](Cc1c[nH]cn1)NC(=O)[C@H](CO)NC(=O)[C@H](Cc1c[nH]c2ccccc12)NC(=O)[C@H](Cc1c[nH]cn1)NC(=O)[C@@H]1CCC(=O)N1 [Compound 10, pGlu-His-Trp-Ser-His-D-Ser(tBu)-Trp-Arg-Pro-NHEt] ([pGlu]HWSH[dS](tBu)WRP-NHEt) | 
